Data: patent publication US7517877B2, “5-substituted-alkylaminopyrazole derivatives as pesticides” (Merial Limited, priority 2002, dated 2009)

Experiments:
[1] = test system: Nephotettix cinciceps (Rice Leafhopper); assay: Method C: Nephotettix cinciceps (Rice Leafhopper) screen, dipped rice plants; format: in vivo, Nephotettix cincticeps; details: 144 h, test concentration of 100 ppm, L3 larvae, after 6 days storage
Procedure: Method C: Nephotettix Cinciceps (Rice Leafhopper) Screen
The leaves of 12 rice plants having a stem length of 8 cm were dipped for 5 seconds into an aqueous solution of the formulated test compound. After the solution had run off, the rice plants treated in this manner were placed in a Petri dish and populated with about 20 larvae (L3 stage) of Nephotettix cincticeps. The Petri dish was closed and then stored in a climate chamber (16 hours of light/day, 25° C., 40-60% relative humidity). After 6 days storage, the percentage mortality of leafhopper larvae was determined.

melting point [°C] | Structure (SMILES) | mortality at 100 ppm [1] [%]
80 | CCSCCCNc1c(S(=O)(=O)C(F)(F)F)c(C#N)nn1-c1c(Cl)cc(C(F)(F)F)cc1Cl [Compound 1-14, 1-(2,6-dichloro-4-trifluoromethylphenyl)-3-cyano-5-(3-ethylthiopropylamino)-4-trifluoromethylsulfonylpyrazole] | –
– | [O-][S+](C1CCSC1)C1CCSC1 (stereo not drawn) [Compound 1-37, 3-tetrahydrothienyl sulfoxide] | ≥ 98
89 | CCSCCCN(C)c1c(S(=O)(=O)C(F)(F)F)c(C#N)nn1-c1c(Cl)cc(C(F)(F)F)cc1Cl [Compound 2-14, 1-(2,6-dichloro-4-trifluoromethylphenyl)-3-cyano-5-[N-(3-ethylthiopropyl)-N-methylamino]-4-trifluoromethylsulfonylpyrazole] | –
